# In US20040101915A1, “Diagnosis and treatment of chemoresistant tumors” (IRM LLC, a Delaware Limited Liability Company, priority 2002, published 2004):
# Assays:
# [1] = test system: K422 cells; test: Caspase activity assay (AFC release from DEVD-AFC) in lysates of treated cells; type: cell-based, human; settings: 100 nM
# Experimental: Caspase activities were assayed as previously described (Stennicke and Salvesen, 2000) at 37° C. in 40 μl of caspase buffer (50 mM HEPES pH 7.4, 100 mM NaCl, 10% sucrose, 1 mM EDTA, 0.1% CHAPS and 10 mM DTT) containing 100 μM of the fluorogenic peptide Ac-DEVD-AFC. Activity was measured continuously over the indicated time by the release of AFC from DEVD-AFC using a Molecular Devices fluorometer in the kinetic mode and with the 405-510 filter pair. For the assessment of caspase activity in intact cells after treatment with different apoptosis stimuli 10-20 μg of total cell protein (Triton X-100 extracts) was used in 40 μl of caspase buffer (containing 100 μM DEVD-AFC). For in-vitro initiation of caspase activity by cytochrome c Triton X-100 free, hypotonic cytosolic extracts were prepared and 10 μM horse heart cytochrome c (Sigma) together with 1 mM dATP or recombinant active caspase-8 (20 nM) were used for caspase activation (Deveraux et al., 1997). For reconstitution of RL-7 hypotonic cell extracts recombinant pro-caspase-3 was used as previously described (Stennicke et al., 1998).
# [2] = test system: K422 cells; test: Morphological examination of treated FL cells; type: cell-based, human; settings: FL cells DOHH2, K422, RL-7
# [3] = test system: K422 cells; test: MTT cytotoxicity assay, K422 cells; type: cell-based, human; settings: for difference in IC50 concentrations in K422 cells compared to the other cell lines tested: 24 hours, MTT, other lines DOHH2, Jurkat, Jurkat bcl-2, RL-7
# Experimental: An MTT cytotoxicity assay was used to determine the number of viable cells following treatment with various apoptotic stimuli. Cells (100 μl of a 8×10^5 cells/ml suspension) were added to each well of a 96 well plate and incubated with etoposide or doxorubicin for 24-72 h. MTT dye solution was then added for 4 h, the blue crystal product was solubilized over night at 37° C. and absorbance was measured at 570 nm. Because the MTT assay also measures growth arrest, the MTT results were verified with caspase activity assays.
# [4] = test system: K422 cells; test: Western blot analysis of caspase processing in treated FL cells; type: cell-based, human; settings: 100 nM; for processing of caspase-8: DOHH2, K422 and RL-7; for caspase processing of the caspases-2, -3, -7 and -9: K422 versus DOHH2 and RL-7
# Source text: Western blot analysis was used to evaluate protein expression.
# [5] = test system: NCI 60 tumor cell panel; settings: NCI database; cited from earlier work
# [6] = test system: RL-7 cells; test: MTT cytotoxicity assay, RL-7 cells; type: cell-based, human; settings: etoposide 0.425 μM 4 hours then agonistic anti-DR5 antibodies 12 hours
# [7] = test system: DOHH2 cells; test: MTT cytotoxicity assay, DOHH2 cells; type: cell-based, human; settings: etoposide 0.425 μM 4 hours then agonistic anti-DR5 antibodies 12 hours, compared to drug or antibody alone
# [8] = test system: DR5 protein levels in DOHH2 cells; settings: 4.25 μM etoposide, Western blot
# Experimental: Western blot analysis was used to evaluate protein expression. Cells (2.4×10^6 well) were seeded in 6 well plates and treated with the respective apoptosis stimuli. After the indicated time periods cells were washes in ice cold PBS and lysed in 1% Triton X-100 containing hypotonic lysis buffer (20 mM HEPES pH 7.5, 10 mM KCl, 1.5 mM MgCl2, 1 mM EDTA and 1 mM DTT). Protein (40 μg) was electorphoresed under reducing conditions on 10-20% gradient SDS-polyacrylamide gels. After electroblotting on nitrocellulose membranes (Schleicher and Schuell) the membranes were blocked for 1 h with 10% non-fat milk powder and immunoblotted for 1 h with the following primary antibodies: rabbit anti-DR5 polyclonal antibody (1:500, Cayman Chemicals), mouse anti-Fas monoclonal antibody CH-11 (MBL), rabbit anti-caspase-3 polyclonal antibody (1:1000, Pharmingen), rabbit anti-caspase-8 polyclonal antibody (1:1000, Pharmingen), mouse anti-caspase-9 monoclonal antibody 5B4 (1:1000, MBL), mouse anti-bcl-2 monoclonal antibody (1:500, Pharmingen) or goat anti-actin polyclonal antibody (1:200, Santa Cruz Biotechnology). Membranes were washed five times with TBS/0.05% Tween, incubated with the respective peroxidase conjugated affinity purified secondary antibody (1:5000, Biorad) for 30 min, washed again five times and developed using enhanced chemiluminescence (ECL, Amersham).
SMILES,caspase activation (enzymatic activity) [1],classical features of apoptosis (morphology) [2],difference in IC50 concentrations in K422 cells compared to the other cell lines tested [3] [fold],processing of caspase-8 [4],"caspase processing of the caspases-2, -3, -7 and -9 [4]",sensitivity of NCI 60 tumor cell panel [5],effect of etoposide pretreatment on apoptosis induced by anti-DR5 antibody [6],effect of etoposide pretreatment on apoptosis induced by anti-DR5 antibody [7],DR5 protein levels following exposure [8],"effect of etoposide pretreatment on apoptosis induced by anti-DR5 antibody ([3]; K422, etoposide 0.425 μM 4 hours then agonistic anti-DR5 antibodies 12 hours)"
C[C@H]1CCC/C=C/[C@@H]2C[C@H](O)C[C@H]2[C@H](O)/C=C/C(=O)O1 [Brefeldin A],induced caspase activation,only K422 exhibited the classical features of apoptosis,6,remained unprocessed in all of the cell lines,only in K422 but not DOHH2 or the caspase-3 deficient RL-7 cells,one of the most sensitive cell lines is NCI/ADR,,,,
COc1cc([C@@H]2c3cc4c(cc3[C@@H](O[C@@H]3O[C@@H]5CO[C@@H](C)O[C@H]5[C@H](O)[C@H]3O)[C@H]3COC(=O)[C@H]23)OCO4)cc(OC)c1O [etoposide],,,,,,,negligible effect,significantly increased apoptosis,significantly increased,negligible effect
CO[C@@H]1[C@H]([N+](C)(C)C)CC2O[C@]1(C)n1c3ccccc3c3c4c(c5c6ccccc6n2c5c31)C(=O)NC4 [Staur-F3],induced caspase activation,only K422 exhibited the classical features of apoptosis,25,remained unprocessed in all of the cell lines,only in K422 but not DOHH2 or the caspase-3 deficient RL-7 cells,,,,,
COc1cccc2c1C(=O)c1c(O)c3c(c(O)c1C2=O)C[C@@](O)(C(=O)CO)C[C@@H]3O[C@H]1C[C@H](N)[C@H](O)[C@H](C)O1 [doxorubicin],,,,,,,,,significantly increased,
